Laboratory results taken from the supplement of paper PMC7029842.
Converted amounts (≈) assume the structure as drawn. ± gives the standard deviation of the averaged measurements.

Assays:
Experiment in all cases: minimum inhibitory concentration (MIC)
Conditions in all cases: incubation time: 18 h
[1] = test system: Burkholderia contaminans ISS isolate s52
[2] = test system: Burkholderia cepacia ISS isolate s33
[3] = test system: Burkholderia cepacia ISS isolate s23
[4] = test system: Burkholderia cepacia ISS isolate s57
[5] = test system: Burkholderia cepacia ISS isolate s22
[6] = test system: Burkholderia cepacia ISS isolate s25
[7] = test system: Burkholderia contaminans ISS isolate s56
[8] = test system: Burkholderia cepacia ISS isolate s15
[9] = test system: Burkholderia cepacia ISS isolate s24
[10] = test system: Burkholderia cepacia ISS isolate s36
[11] = test system: Burkholderia contaminans J2956
[12] = test system: Burkholderia cepacia ISS isolate s31
[13] = test system: Burkholderia contaminans ISS isolate s53
[14] = test system: Burkholderia contaminans ISS isolate s47
[15] = test system: Burkholderia contaminans ISS isolate s54
[16] = test system: Burkholderia cepacia ISS isolate s35
[17] = test system: Burkholderia cepacia ISS isolate s37
[18] = test system: Burkholderia cepacia ISS isolate s28
[19] = test system: Burkholderia cepacia ATCC25416
[20] = test system: Burkholderia cepacia ISS isolate s9
[21] = test system: Burkholderia cepacia ISS isolate s16
[22] = test system: Burkholderia cepacia ISS isolate s12
[23] = test system: Burkholderia cepacia ISS isolate s41
[24] = test system: Burkholderia cepacia ISS isolate s39
[25] = test system: Burkholderia cepacia ISS isolate s18
[26] = test system: Burkholderia cepacia ISS isolate s20

SMILES	minimum inhibitory concentration [1] [µg/mL]	minimum inhibitory concentration [2] [µg/mL]	minimum inhibitory concentration [3] [µg/mL]	minimum inhibitory concentration [4] [µg/mL]	minimum inhibitory concentration [5] [µg/mL]	minimum inhibitory concentration [6] [µg/mL]	minimum inhibitory concentration [7] [µg/mL]	minimum inhibitory concentration [8] [µg/mL]	minimum inhibitory concentration [9] [µg/mL]	minimum inhibitory concentration [10] [µg/mL]	minimum inhibitory concentration [11] [µg/mL]	minimum inhibitory concentration [12] [µg/mL]	minimum inhibitory concentration [13] [µg/mL]	minimum inhibitory concentration [14] [µg/mL]	minimum inhibitory concentration [15] [µg/mL]	minimum inhibitory concentration [16] [µg/mL]	minimum inhibitory concentration [17] [µg/mL]	minimum inhibitory concentration [18] [µg/mL]	minimum inhibitory concentration [19] [µg/mL]	minimum inhibitory concentration [20] [µg/mL]	minimum inhibitory concentration [21] [µg/mL]	minimum inhibitory concentration [22] [µg/mL]	minimum inhibitory concentration [23] [µg/mL]	minimum inhibitory concentration [24] [µg/mL]	minimum inhibitory concentration [25] [µg/mL]	minimum inhibitory concentration [26] [µg/mL]
C[C@H]1COc2c(N3CCN(C)CC3)c(F)cc3c(=O)c(C(=O)O)cn1c23 [levofloxacin]	0.5 (≈ 1.38 µM)	1 (≈ 2.77 µM)	8 ± 6.1 (≈ 22.1 µM)	0.63 ± 0.29 (≈ 1.74 µM)	8 ± 6.1 (≈ 22.1 µM)	6.35 ± 2.3 (≈ 17.6 µM)	0.5 (≈ 1.38 µM)	1 (≈ 2.77 µM)	10.1 ± 15 (≈ 27.9 µM)	1.26 ± 0.87 (≈ 3.49 µM)	0.5 (≈ 1.38 µM)	8 ± 6.1 (≈ 22.1 µM)	0.5 (≈ 1.38 µM)	0.5 (≈ 1.38 µM)	0.315 ± 0.14 (≈ 0.872 µM)	1.59 ± 1.7 (≈ 4.39 µM)	1.26 ± 0.58 (≈ 3.49 µM)	10.1 ± 15 (≈ 27.9 µM)	0.63 ± 0.43 (≈ 1.74 µM)	6.35 ± 2.3 (≈ 17.6 µM)	–	–	–	–	–	–
CO/N=C(\C(=O)N[C@@H]1C(=O)N2C(C(=O)O)=C(COC(C)=O)CS[C@H]12)c1csc(N)n1 [cefotaxime]	> 64	20.2 ± 9.2 (≈ 44.3 µM)	20.2 ± 9.2 (≈ 44.3 µM)	11.3 ± 5.7 (≈ 24.8 µM)	20.2 ± 9.2 (≈ 44.3 µM)	12.7 ± 14 (≈ 27.9 µM)	> 64	16 (≈ 35.1 µM)	20.2 ± 9.2 (≈ 44.3 µM)	16 ± 12 (≈ 35.1 µM)	> 64	25.4 ± 9.2 (≈ 55.8 µM)	> 64	> 64	> 64	16 ± 12 (≈ 35.1 µM)	20.2 ± 9.2 (≈ 44.3 µM)	20.2 ± 9.2 (≈ 44.3 µM)	20.2 ± 9.2 (≈ 44.3 µM)	20.2 ± 9.2 (≈ 44.3 µM)	20.2 ± 9.2 (≈ 44.3 µM)	16 ± 12 (≈ 35.1 µM)	12.7 ± 14 (≈ 27.9 µM)	12.7 ± 14 (≈ 27.9 µM)	20.2 ± 9.2 (≈ 44.3 µM)	20.2 ± 9.2 (≈ 44.3 µM)
O=C(N[C@H](CO)[C@H](O)c1ccc([N+](=O)[O-])cc1)C(Cl)Cl [chloramphenicol]	8 (≈ 24.8 µM)	5.04 ± 2.3 (≈ 15.6 µM)	–	8 (≈ 24.8 µM)	7.37 ± 12 (≈ 22.8 µM)	5.85 ± 4.9 (≈ 18.1 µM)	6.35 ± 2.3 (≈ 19.7 µM)	5.04 ± 2.3 (≈ 15.6 µM)	9.28 ± 11 (≈ 28.7 µM)	8 ± 16 (≈ 24.8 µM)	8 (≈ 24.8 µM)	5.85 ± 4.9 (≈ 18.1 µM)	8 (≈ 24.8 µM)	5.04 ± 2.3 (≈ 15.6 µM)	8 (≈ 24.8 µM)	5.04 ± 2.3 (≈ 15.6 µM)	5.04 ± 3.5 (≈ 15.6 µM)	5.85 ± 4.9 (≈ 18.1 µM)	6.35 ± 2.3 (≈ 19.7 µM)	4.64 ± 5.6 (≈ 14.4 µM)	9.28 ± 2.6 (≈ 28.7 µM)	7.37 ± 4.2 (≈ 22.8 µM)	4 ± 3.1 (≈ 12.4 µM)	4 ± 3.1 (≈ 12.4 µM)	9.28 ± 2.6 (≈ 28.7 µM)	11.7 ± 9.8 (≈ 36.2 µM)
CC(C)(O/N=C(\C(=O)N[C@@H]1C(=O)N2C(C(=O)[O-])=C(C[n+]3ccccc3)CS[C@H]12)c1csc(N)n1)C(=O)O [ceftazidime]	8 (≈ 14.6 µM)	4 (≈ 7.32 µM)	4 (≈ 7.32 µM)	3.17 ± 1.1 (≈ 5.81 µM)	4 (≈ 7.32 µM)	4 (≈ 7.32 µM)	8 (≈ 14.6 µM)	4.58 ± 1.1 (≈ 8.38 µM)	4 (≈ 7.32 µM)	4 (≈ 7.32 µM)	8 (≈ 14.6 µM)	4 (≈ 7.32 µM)	8 (≈ 14.6 µM)	8 (≈ 14.6 µM)	8 (≈ 14.6 µM)	3.17 ± 1.1 (≈ 5.81 µM)	2 ± 2 (≈ 3.66 µM)	4 (≈ 7.32 µM)	12.7 ± 4.6 (≈ 23.2 µM)	4 (≈ 7.32 µM)	4 (≈ 7.32 µM)	4 (≈ 7.32 µM)	3.17 ± 1.1 (≈ 5.81 µM)	3.17 ± 1.1 (≈ 5.81 µM)	4 (≈ 7.32 µM)	4 (≈ 7.32 µM)
COc1cc(Cc2cnc(N)nc2N)cc(OC)c1OC.Cc1cc(NS(=O)(=O)c2ccc(N)cc2)no1 [trimethoprim/sulfamethoxazole]	6.35 ± 2.3	25.4 ± 9.2	25.4 ± 9.2	16	20.2 ± 9.2	22.6 ± 11	10.1 ± 4.6	25.4 ± 9.2	–	32	8	20.2 ± 9.2	8	8	6.35 ± 2.3	32	32	25.4 ± 9.2	20.2 ± 9.2	–	20.2 ± 14	12.7 ± 4.6	25.4 ± 9.2	20.2 ± 9.2	12.7 ± 14	25.4 ± 9.2
CN(C)c1ccc(O)c2c1C[C@H]1C[C@H]3[C@H](N(C)C)C(O)=C(C(N)=O)C(=O)[C@@]3(O)C(O)=C1C2=O [minocycline]	2 (≈ 4.37 µM)	12.7 ± 4.6 (≈ 27.8 µM)	8 ± 6.1 (≈ 17.5 µM)	2 (≈ 4.37 µM)	6.35 ± 2.3 (≈ 13.9 µM)	8 ± 6.1 (≈ 17.5 µM)	2.52 ± 1.1 (≈ 5.51 µM)	12.7 ± 4.6 (≈ 27.8 µM)	12.7 ± 14 (≈ 27.8 µM)	6.35 ± 6.9 (≈ 13.9 µM)	2 (≈ 4.37 µM)	4 (≈ 8.74 µM)	2 (≈ 4.37 µM)	3.17 ± 3.5 (≈ 6.94 µM)	2 (≈ 4.37 µM)	8 (≈ 17.5 µM)	6.35 ± 2.3 (≈ 13.9 µM)	10.1 ± 15 (≈ 22 µM)	1.59 ± 0.58 (≈ 3.47 µM)	6.35 ± 6.9 (≈ 13.9 µM)	5.04 ± 3.5 (≈ 11 µM)	3.17 ± 1.1 (≈ 6.94 µM)	8 ± 6.1 (≈ 17.5 µM)	6.35 ± 6.9 (≈ 13.9 µM)	6.35 ± 7 (≈ 13.9 µM)	6.35 ± 7 (≈ 13.9 µM)
C[C@@H](O)[C@H]1C(=O)N2C(C(=O)O)=C(S[C@@H]3CN[C@H](C(=O)N(C)C)C3)[C@H](C)[C@H]12 [meropenem]	4 (≈ 10.4 µM)	–	20.2 ± 14 (≈ 52.6 µM)	5.04 ± 2.3 (≈ 13.1 µM)	2 ± 1.5 (≈ 5.22 µM)	20.2 ± 9.2 (≈ 52.6 µM)	5.04 ± 2.3 (≈ 13.1 µM)	–	20.2 ± 14 (≈ 52.6 µM)	–	4 (≈ 10.4 µM)	25.4 ± 9.2 (≈ 66.2 µM)	4 (≈ 10.4 µM)	4 (≈ 10.4 µM)	4 (≈ 10.4 µM)	32 (≈ 83.4 µM)	32 (≈ 83.4 µM)	25.4 ± 9.2 (≈ 66.2 µM)	16 ± 12 (≈ 41.7 µM)	32 (≈ 83.4 µM)	10.1 ± 6.9 (≈ 26.3 µM)	20.2 ± 9.2 (≈ 52.6 µM)	–	–	12.7 ± 14 (≈ 33.1 µM)	12.7 ± 14 (≈ 33.1 µM)
